Patent US20070275967A1, “Pyrazolinols” (BAYER CROPSCIENCE AKTIENGESELLSCHAFT, priority 2003, published 2007)
One block for each molecule: values may come before it.

Assays:
[1] = test system: larvae of the mustard beetle (Phaedon cochleariae); test: Phaedon test (spray treatment); format: in vivo; settings: for activity (kill of beetle larvae): Chinese cabbage disks sprayed, populated with Phaedon cochleariae larvae, result in words; for pest or weed control at 500 g/ha: Phaedon cochleariae, 168 h, active compound concentration 500 g/ha, after 7 d, spray treatment, read-out: Kill rate in % after 7 d
Protocol: Phaedon Test (Spray Treatment) [table] To produce a suitable preparation of active compound, 1 part by weight of active compound is mixed with the stated amounts of solvents and emulsifier, and the concentrate is diluted with emulsifier-containing water to the desired concentration. Disks of Chinese cabbage (Brassica pekinensis) are sprayed with a preparation of active compound of the desired concentration and, once they have dried, populated with larvae of the mustard beetle (Phaedon cochleariae). After the desired period of time, the activity in % is determined. 100% means that all beetle larvae have been killed; 0% means that none of the beetle larvae have been killed.

[2] = test system: caterpillars of the armyworm (Spodoptera frugiperda); test: Spodoptera frugiperda test (spray treatment); format: in vivo
Protocol: Spodoptera Frugiperda Test (Spray Treatment) [table] To produce a suitable preparation of active compound, 1 part by weight of active compound is mixed with, the stated amounts of solvents and emulsifier, and the concentrate is diluted with emulsifier-containing water to the desired concentration. Disks of corn leaves (Zea mays) are sprayed with a preparation of active compound of the desired concentration and, after they have dried, populated with caterpillars of the armyworm (Spodoptera frugiperda). After the desired period of time, the activity in % is determined. 100% means that all caterpillars have been killed; 0% means that none of the caterpillars have been killed.

[3] = test system: Adults of Ctenocephalides felis; test: Test with cat fleas/oral uptake; format: in vivo; settings: for Kill rate in % after 2 d: active compound concentration 100 ppm, oral uptake; for mortality of fleas: oral uptake from citrated cattle blood, at least 75% kill within 48 h judged effective, result in words
Protocol: Test with Cat Fleas/Oral Uptake
Ctenocephalides Felis (Oral)
To produce a suitable formulation, a suitable solution of active compound is prepared from 10 mg of active compound and 0.5 ml of DMSO. 10 μl of this formulation are added to 2 ml of citrated cattle blood and stirred.
20 unfed adult fleas (Ctenocephalides felis, strain “Georgi”) are placed into a chamber (Ø 5 cm) whose top and bottom are closed with gauze. A metal cylinder whose underside is covered with parafilm is placed onto the chamber. The cylinder contains the 2 ml of blood/active compound formulation which can be taken up by the fleas through the parafilm membrane. Whereas the blood is warmed to 37° C., the temperature in the area of the flea chambers is adjusted to room temperature. Controls are mixed with the same volume of DMSO, without addition of a compound.
After 24 h and 48 h, the mortality in % is determined.
Compounds which effect an at least 75% kill of the fleas within 48 h are judged to be effective.

[4] = logP determination by HPLC on reversed-phase column (EEC Directive 79/831 Annex V.A8); format: physicochemical; settings: reversed-phase C18 HPLC column; acidic range (pH 2.3), marked a); 0.1% aqueous phosphoric acid/acetonitrile gradient; reversed-phase C 18; 43° C.
Outline: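 Reversed-phase C18 HPLC at 43° C with 10–90% acetonitrile linear gradient, run at pH 2.3 (0.1% phosphoric acid) or pH 7.5 (0.01-molar phosphate buffer). logP derived from retention times by linear interpolation against unbranched alkan-2-ones (C3–C16) of known logP.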

[5] = test system: greenhouse red spidermite (Tetranychus urticae); test: Tetranychus test (OP-resistant/spray treatment); format: in vivo
Protocol: Tetranychus Test (OP-Resistant/Spray Treatment)
To produce a suitable preparation of active compound, 1 part by weight of active compound is mixed with the stated amounts of solvents and emulsifier, and the concentrate is diluted with emulsifier-containing water to the desired concentration.
Disks of bean leaves (Phaseolus vulgaris) which are infested by all stages of the greenhouse red spidermite (Tetranychus urticae) are sprayed with a preparation of active compound of the desired concentration.
After the desired period of time, the activity in % is determined. 100% means that all spidermites have been killed; 0% means that none of the spidermites have been killed.

[6] = test system: Meloidogyne incognita; test: Meloidogyne test (nematicidal action by gall formation on lettuce roots); format: in vivo
Protocol: Meloidogyne Test [table] To produce a suitable preparation of active compound, 1 part by weight of active compound is mixed with the stated amounts of solvent and emulsifier, and the concentrate is diluted with water to the desired concentration. Containers are filled with sand, solution of active compound, Meloidogyne incognita egg/larvae suspension and lettuce seeds. The lettuce seeds germinate and the plants develop. On the roots, galls are formed. After the desired period of time, the nematicidal action is determined in % by the formation of galls. 100% means that no galls were found; 0% means that the number of galls on the treated plants corresponds to that of the untreated control.

Compound: CC(C)C1=NN(C(=S)Nc2c(Cl)cccc2Cl)C(O)(C(F)(F)F)C1 (centres unmarked) [Example 29]
activity (kill of beetle larvae) [1]: good activity | pest or weed control at 500 g/ha [1]: 100% | pest or weed control at 500 g/ha ([2]; Spodoptera frugiperda, 168 h, active compound concentration 500 g/ha, after 7 d, spray treatment, read-out: Kill rate in % after 7 d): 100% | activity (kill of caterpillars) ([2]; corn leaf disks sprayed, populated with Spodoptera frugiperda caterpillars, result in words): good activity | Kill rate in % after 2 d [3]: 100% | mortality of fleas [3]: good activity | chromatographic logP [4]: 4

Compound: CC(C)C1=NN(C(=S)Nc2ccc(Cl)cc2Cl)C(O)(C(F)(F)F)C1 (centres unmarked) [Example 34]
activity (kill of beetle larvae) [1]: good activity | pest or weed control at 500 g/ha [1]: 100% | pest or weed control at 500 g/ha ([5]; Tetranychus urticae, 120 h, active compound concentration 500 g/ha, after 5 d, OP-resistant, spray treatment, read-out: Kill rate in % after 5 d): 100% | activity (kill of spidermites) ([5]; bean leaf disks infested by all stages of Tetranychus urticae (OP-resistant), sprayed, result in words): good activity | Kill rate in % after 2 d [3]: 100% | mortality of fleas [3]: good activity | chromatographic logP [4]: 4.91

chromatographic logP [4]: 3.26
Compound: CC1=NN(C(=O)Nc2ccc(C(F)(F)F)cc2)C(O)(C(F)(F)F)C1 (centres unmarked) [Example 115]
nematicidal action (formation of galls) ([6]; Meloidogyne incognita egg/larvae suspension, lettuce, sand, result in words): good activity | pest or weed control at 20 ppm ([6]; Meloidogyne incognita, 336 h, active compound concentration 20 ppm, after 14 d, nematicidal action by gall formation, read-out: Effect in % after 14 d): 100%
